According to the supplement of paper PMC10307832:

Legend:
Assay in all cases: relative viability (nuclei count vs DMSO), 5 days (fraction); higher = more cells survive
BGJ398 = compound: CCN1CCN(c2ccc(Nc3cc(N(C)C(=O)Nc4c(Cl)c(OC)cc(OC)c4Cl)ncn3)cc2)CC1 [BGJ398]
Method in brief: (§1)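 MetaXpress counted nuclei in 4× images of lung cancer cell lines that had been fixed, permeabilised and Hoechst-stained in one step. Before that, cells in 1536-well plates were kept overnight at 37 °C, pinned with five √10-spaced library-drug doses on vehicle-anchored plates, and cultured 5 days without medium change. Viability takes treated-well nuclei over vehicle-well nuclei and uses the median across plates. Plates were accepted only at control CV below 25% and at least one doubling.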

[1] = compound: C1=CC2=NC=CN=C2C=C1/C=C/3\C(=O)NC(=O)S3
Method in brief: as §1

BGJ398 + Pemetrexed = compound: CCN1CCN(c2ccc(Nc3cc(N(C)C(=O)Nc4c(Cl)c(OC)cc(OC)c4Cl)ncn3)cc2)CC1 [BGJ398] + Nc1nc2[nH]cc(CCc3ccc(C(=O)N[C@@H](CCC(=O)O)C(=O)O)cc3)c2c(=O)[nH]1 [Pemetrexed] (partner 0.2 µM)
Method in brief: (§2)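 Dosing by pin tool came one day after lung cancer cell lines were seeded in 1536-well plates, using either one drug or a fixed anchor-drug dose plus five library-drug doses (not always all listed) in √10 steps. After 5 days, nuclei were counted on 4× images. Relative viability is treated-well nuclei count divided by vehicle-well nuclei count, and values are medians of duplicate plates.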

[2] = compound: C1=CC2=NC=CN=C2C=C1/C=C/3\C(=O)NC(=O)S3 + COc1cccc2cc(-c3nc([C@H]4CC[C@H](C(=O)O)CC4)n4ncnc(N)c34)[nH]c12 [OSI-027] (partner 0.5 µM)
Method in brief: as §2

| Cell Line | relative viability (BGJ398; 0.01 µM) | relative viability (BGJ398; 0.03162 µM) | relative viability (BGJ398; 0.1 µM) | relative viability (BGJ398; 0.3162 µM) | relative viability (BGJ398; 1 µM) | relative viability ([1]; 0.02 µM) | relative viability ([1]; 0.06325 µM) | relative viability ([1]; 0.2 µM) | relative viability ([1]; 0.6325 µM) | relative viability ([1]; 2 µM) | relative viability (BGJ398 + Pemetrexed; first compound 0.01 µM) | relative viability (BGJ398 + Pemetrexed; first compound 0.03162 µM) | relative viability (BGJ398 + Pemetrexed; first compound 0.1 µM) | relative viability (BGJ398 + Pemetrexed; first compound 0.3162 µM) | relative viability (BGJ398 + Pemetrexed; first compound 1 µM) | relative viability ([2]; first compound 0.02 µM) | relative viability ([2]; first compound 0.06325 µM) | relative viability ([2]; first compound 0.2 µM) | relative viability ([2]; first compound 0.6325 µM) | relative viability ([2]; first compound 2 µM) |
| --- | --- | --- | --- | --- | --- | --- | --- | --- | --- | --- | --- | --- | --- | --- | --- | --- | --- | --- | --- | --- |
| 201T | 1.18 | 0.93 | 0.96 | 0.95 | 0.845 | 0.823 | 1.05 | 1.03 | 0.954 | 0.818 | 0.343 | 0.339 | 0.338 | 0.329 | 0.334 | 0.664 | 0.682 | 0.714 | 0.671 | 0.23 |
| A549 | 0.932 | 0.917 | 1.03 | 0.876 | 0.996 | 0.98 | 0.999 | 1.05 | 0.902 | 0.697 | – | – | – | – | – | – | – | – | – | – |
| A-427 | 0.985 | 0.979 | 0.967 | 0.815 | 0.753 | 0.963 | 1.14 | 1.08 | 0.918 | 0.975 | 1.03 | 1.08 | 0.958 | 0.924 | 0.918 | 0.476 | 0.55 | 0.54 | 0.435 | 0.365 |
| ABC-1 | 0.891 | 0.988 | 0.902 | 0.816 | 0.927 | 0.977 | 0.987 | 0.893 | 0.931 | 0.526 | – | – | – | – | – | 0.434 | 0.509 | 0.509 | 0.408 | 0.232 |
| BEN | 0.891 | 0.964 | 0.947 | 0.845 | 0.809 | 0.922 | 0.922 | 1.03 | 0.961 | 0.839 | 0.703 | 0.812 | 0.751 | 0.749 | 0.606 | 0.306 | 0.287 | 0.288 | 0.289 | 0.275 |
| CAL-12T | 0.947 | 1.02 | 0.935 | 0.929 | 0.942 | 0.962 | 0.953 | 1.08 | 0.971 | 0.951 | 1.17 | 1.21 | 1.1 | 1.34 | 1.01 | 0.489 | 0.648 | 0.741 | 0.542 | 0.33 |
| COR-L23 | 0.96 | 1.06 | 1.12 | 1.02 | 1.09 | 0.967 | 1.15 | 1.02 | 0.938 | 0.976 | 0.189 | 0.191 | 0.192 | 0.208 | 0.193 | 0.781 | 0.898 | 0.873 | 0.74 | 0.497 |
| COR-L 105 | 0.875 | 0.744 | 0.961 | 0.83 | 0.875 | 0.904 | 1.05 | 1.01 | 0.912 | 0.741 | 1.36 | 1.12 | 0.879 | 1.12 | 0.936 | 0.743 | 0.669 | 0.729 | 0.623 | 0.435 |
| Calu-6 | 0.986 | 0.988 | 1.05 | 1.02 | 1.02 | 0.971 | 1.04 | 1.03 | 0.989 | 1 | – | – | – | – | – | – | – | – | – | – |
| ChaGo-K-1 | 1.06 | 0.987 | 1.03 | 1.03 | 1.02 | 0.972 | 0.991 | 1.09 | 0.919 | 0.891 | 0.261 | 0.249 | 0.242 | 0.269 | 0.281 | 0.567 | 0.58 | 0.544 | 0.424 | 0.352 |
| EBC-1 | 0.975 | 0.981 | 1.09 | 1.03 | 1.14 | 0.913 | 1.04 | 0.957 | 1.05 | 1.01 | – | – | – | – | – | – | – | – | – | – |
| EKVX | 0.865 | 0.942 | 1.08 | 0.871 | 0.986 | 0.927 | 0.885 | 0.987 | 0.936 | 0.786 | 0.385 | 0.403 | 0.452 | 0.38 | 0.378 | 0.69 | 0.405 | 0.683 | 0.683 | 0.408 |
| EMC-BAC-2 | 1.17 | 1.15 | 0.964 | 0.945 | 0.942 | 0.951 | 1.1 | 1.1 | 0.944 | 0.554 | 0.432 | 0.483 | 0.477 | 0.477 | 0.471 | 0.307 | 0.436 | 0.416 | 0.37 | 0.251 |
| EPLC-272H | 0.898 | 0.899 | 0.911 | 0.785 | 0.778 | 0.939 | 0.902 | 0.98 | 0.799 | 0.733 | 0.32 | 0.447 | 0.317 | 0.289 | 0.418 | 0.303 | 0.264 | 0.307 | 0.256 | 0.287 |
| H3255 | 0.945 | – | 1 | 0.843 | 0.999 | 0.984 | 1.02 | 1.01 | 0.934 | 0.946 | 0.608 | 0.434 | 0.604 | 0.509 | 0.629 | 0.519 | 0.592 | 0.526 | 0.627 | 0.473 |
| HARA | 1.02 | 0.788 | 0.821 | 0.719 | 0.602 | 0.84 | 0.992 | 0.945 | 0.778 | 0.955 | 0.237 | 0.22 | 0.215 | 0.273 | 0.248 | 0.482 | 0.396 | 0.586 | 0.43 | 0.195 |
| HCC-15 | 1.01 | 1.01 | 1.07 | 1.13 | 0.887 | 1 | 0.921 | 0.972 | 0.921 | 0.818 | 0.262 | 0.232 | 0.219 | 0.223 | 0.221 | 0.759 | 0.672 | 0.726 | 0.641 | 0.373 |
